Structures can show the parent of a compound that is named as a salt.
How the values were obtained:
GABAA receptor (GABA) = test: radioligand competition binding, [3H]Muscimol; design: species or system rat
Thyroid hormone receptor = test: radioligand competition binding, [125I]Triiodothyronine; design: species or system rat
[1] = target: T1, α2C (adrenergic receptor) (Homo sapiens, UniProt P18825); test: radioligand competition binding, [3H]RX 821002
T1 construct: Eurofins

[2] = target: T2, Leukotriene receptor CysLT1 (Homo sapiens, UniProt Q9Y271); test: radioligand competition binding, [125I]LTD4
T2 construct: Eurofins

SERT = target: T3, SERT (Homo sapiens, UniProt P31645); test: radioligand competition binding, [3H]imipramine
T3 construct: Eurofins

[3] = target: Ca2+ Channel L-Type, (Dihydropyridine) (Rattus norvegicus, UniProt P22002); test: biochemical; conditions: read-out: % inhibition of the specific radioligand binding
GABAA receptor (benzod.) = test: radioligand competition binding, [3H]Flunitrazepam; design: species or system rat
Endothelin receptor ETB = target: T4, Endothelin receptor ETB (Homo sapiens, UniProt P24530); test: radioligand competition binding, [125I]Endothelin-1
T4 construct: Eurofins

M1 (muscarinic receptor) = target: T5, M1 (muscarinic receptor) (Homo sapiens, UniProt P11229); test: radioligand competition binding, [3H]pirenzepine
T5 construct: Eurofins
T5 sequence (P11229 1-460): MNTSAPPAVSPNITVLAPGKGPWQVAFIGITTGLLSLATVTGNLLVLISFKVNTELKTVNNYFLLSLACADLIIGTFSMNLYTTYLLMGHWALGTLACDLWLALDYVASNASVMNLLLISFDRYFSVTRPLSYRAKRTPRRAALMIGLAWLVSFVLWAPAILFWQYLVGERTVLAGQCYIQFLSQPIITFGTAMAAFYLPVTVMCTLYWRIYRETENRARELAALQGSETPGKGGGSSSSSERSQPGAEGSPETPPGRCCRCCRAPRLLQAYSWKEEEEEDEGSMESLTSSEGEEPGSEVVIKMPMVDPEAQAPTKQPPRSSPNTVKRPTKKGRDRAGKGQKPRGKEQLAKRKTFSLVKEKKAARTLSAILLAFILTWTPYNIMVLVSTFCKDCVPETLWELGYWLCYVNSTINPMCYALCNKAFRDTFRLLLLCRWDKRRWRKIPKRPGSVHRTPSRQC

[4] = target: T6, H2 (histaminergic receptor) (Homo sapiens, UniProt P25021); test: radioligand competition binding, [125I]APT
T6 construct: Eurofins

[5] = target: T7, α2A (adrenergic receptor) (Homo sapiens, UniProt P08913); test: radioligand competition binding, [3H]RX 821002
T7 construct: Eurofins
T7 sequence (P08913 1-465): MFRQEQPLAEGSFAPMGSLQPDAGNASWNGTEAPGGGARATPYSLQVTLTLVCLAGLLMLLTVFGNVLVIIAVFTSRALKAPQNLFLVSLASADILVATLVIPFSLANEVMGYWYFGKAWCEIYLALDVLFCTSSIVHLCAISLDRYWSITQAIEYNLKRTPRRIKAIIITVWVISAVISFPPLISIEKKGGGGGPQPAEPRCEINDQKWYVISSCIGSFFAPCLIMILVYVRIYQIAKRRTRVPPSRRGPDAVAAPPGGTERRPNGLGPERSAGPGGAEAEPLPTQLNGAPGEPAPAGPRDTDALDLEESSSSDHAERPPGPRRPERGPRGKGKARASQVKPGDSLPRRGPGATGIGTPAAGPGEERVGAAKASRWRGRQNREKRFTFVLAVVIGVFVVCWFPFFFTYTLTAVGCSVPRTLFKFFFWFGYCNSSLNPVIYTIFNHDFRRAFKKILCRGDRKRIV

[6] = target: T8, D1 (dopaminergic receptor) (Homo sapiens, UniProt P21728); test: radioligand competition binding, [3H]SCH 23390; conditions: read-out: % inhibition of the specific radioligand binding
T8 construct: Eurofins

[7] = target: NMDA receptor (Glutamate) (Rattus norvegicus, UniProt Q00959); test: biochemical; conditions: read-out: % inhibition of the specific radioligand binding
Glucocorticoid receptor = target: T9, Glucocorticoid receptor (Homo sapiens, UniProt P04150); test: radioligand competition binding, [3H]Dexamethasone
T9 construct: Eurofins

Opioid receptor δ = target: T10, Opioid receptor δ (Homo sapiens, UniProt P41143); test: radioligand competition binding, [3H] Naltrindole
T10 construct: Eurofins

Imidazoline receptor I2 = test: radioligand competition binding, [3H]Idazoxan; design: species or system rat
Kainate receptor = test: radioligand competition binding, [3H]Kainic acid; design: species or system rat
[8] = target: T11, Neuropeptide Y receptor Y1 (Homo sapiens, UniProt P25929); test: radioligand competition binding, [125I]Peptide YY
T11 construct: Eurofins

5-HT4e = target: T12, 5-HT4e (Homo sapiens, UniProt Q13639); test: radioligand competition binding, [3H]GR 113808
T12 construct: Eurofins

[9] = target: Ca2+ Channel L-Type, (Benzothiazepine) (Rattus norvegicus, UniProt P22002); test: biochemical; conditions: read-out: % inhibition of the specific radioligand binding
[10] = target: T13, D4.4 (dopaminergic receptor) (Homo sapiens, UniProt P21917); test: radioligand competition binding, [3H]methyl-spiperone; conditions: read-out: % inhibition of the specific radioligand binding
T13 construct: Eurofins

Ca2+ Channel N-Type = Ca2+ Channel N-Type (Rattus norvegicus, UniProt Q02294); test: biochemical; format: binding
Adenosine receptor A3 = target: T14, Adenosine receptor A3 (Homo sapiens, UniProt P0DMS8); test: radioligand competition binding, [125I]AB-MECA
T14 construct: Eurofins

DAT = target: T15, DAT (Homo sapiens, UniProt Q01959); test: radioligand competition binding, [3H]BTCP
T15 construct: Eurofins

human 5-HT2CR = human 5-HT2CR (Homo sapiens, UniProt P28335); test: Ca2+/Fluo-4 assay, antagonist mode (5-HT EC90 as agonist), stable 5-HT2CR-HEK293 cells; conditions: 5-HT2CR pIC50 ± S.E.M., Table S2
[11] = estimated from the % inhibition data
[12] = read-out: % inhibition of the specific radioligand binding

T3 sequence (P31645 whole entry): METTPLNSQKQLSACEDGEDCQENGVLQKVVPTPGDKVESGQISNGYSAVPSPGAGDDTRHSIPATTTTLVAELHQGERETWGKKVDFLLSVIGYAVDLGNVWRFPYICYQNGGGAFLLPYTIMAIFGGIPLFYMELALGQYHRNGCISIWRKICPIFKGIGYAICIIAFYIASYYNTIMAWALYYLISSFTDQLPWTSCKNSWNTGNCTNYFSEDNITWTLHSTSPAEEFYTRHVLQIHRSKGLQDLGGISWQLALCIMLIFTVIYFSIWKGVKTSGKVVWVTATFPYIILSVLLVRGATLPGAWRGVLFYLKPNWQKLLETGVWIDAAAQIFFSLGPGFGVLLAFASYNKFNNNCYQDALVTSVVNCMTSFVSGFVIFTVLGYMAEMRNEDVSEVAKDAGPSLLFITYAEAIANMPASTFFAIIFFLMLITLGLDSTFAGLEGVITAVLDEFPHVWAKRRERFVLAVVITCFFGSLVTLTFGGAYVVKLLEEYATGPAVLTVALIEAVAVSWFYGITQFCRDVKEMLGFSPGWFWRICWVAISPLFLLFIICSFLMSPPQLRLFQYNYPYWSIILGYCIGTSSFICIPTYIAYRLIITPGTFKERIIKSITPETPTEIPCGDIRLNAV
T1 sequence (P18825 whole entry): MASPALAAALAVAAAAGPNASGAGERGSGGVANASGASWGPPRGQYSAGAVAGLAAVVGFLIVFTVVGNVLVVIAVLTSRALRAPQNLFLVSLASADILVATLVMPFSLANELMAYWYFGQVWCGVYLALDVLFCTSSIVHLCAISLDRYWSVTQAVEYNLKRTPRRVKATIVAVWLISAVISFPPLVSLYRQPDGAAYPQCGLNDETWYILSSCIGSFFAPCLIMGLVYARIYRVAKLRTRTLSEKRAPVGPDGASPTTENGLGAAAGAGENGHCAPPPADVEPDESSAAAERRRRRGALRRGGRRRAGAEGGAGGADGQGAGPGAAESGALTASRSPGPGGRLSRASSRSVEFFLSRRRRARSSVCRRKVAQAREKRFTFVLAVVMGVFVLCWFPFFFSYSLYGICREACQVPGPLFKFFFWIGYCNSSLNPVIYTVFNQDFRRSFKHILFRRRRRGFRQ
T14 sequence (P0DMS8 whole entry): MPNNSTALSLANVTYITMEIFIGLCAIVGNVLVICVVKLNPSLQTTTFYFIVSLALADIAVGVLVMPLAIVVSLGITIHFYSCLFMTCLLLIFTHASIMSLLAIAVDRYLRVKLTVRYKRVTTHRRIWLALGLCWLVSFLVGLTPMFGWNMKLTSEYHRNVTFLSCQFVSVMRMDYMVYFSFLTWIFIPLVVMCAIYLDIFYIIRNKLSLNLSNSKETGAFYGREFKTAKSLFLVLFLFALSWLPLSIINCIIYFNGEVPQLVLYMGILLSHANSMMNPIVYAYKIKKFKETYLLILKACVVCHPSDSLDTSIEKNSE
T15 sequence (Q01959 whole entry): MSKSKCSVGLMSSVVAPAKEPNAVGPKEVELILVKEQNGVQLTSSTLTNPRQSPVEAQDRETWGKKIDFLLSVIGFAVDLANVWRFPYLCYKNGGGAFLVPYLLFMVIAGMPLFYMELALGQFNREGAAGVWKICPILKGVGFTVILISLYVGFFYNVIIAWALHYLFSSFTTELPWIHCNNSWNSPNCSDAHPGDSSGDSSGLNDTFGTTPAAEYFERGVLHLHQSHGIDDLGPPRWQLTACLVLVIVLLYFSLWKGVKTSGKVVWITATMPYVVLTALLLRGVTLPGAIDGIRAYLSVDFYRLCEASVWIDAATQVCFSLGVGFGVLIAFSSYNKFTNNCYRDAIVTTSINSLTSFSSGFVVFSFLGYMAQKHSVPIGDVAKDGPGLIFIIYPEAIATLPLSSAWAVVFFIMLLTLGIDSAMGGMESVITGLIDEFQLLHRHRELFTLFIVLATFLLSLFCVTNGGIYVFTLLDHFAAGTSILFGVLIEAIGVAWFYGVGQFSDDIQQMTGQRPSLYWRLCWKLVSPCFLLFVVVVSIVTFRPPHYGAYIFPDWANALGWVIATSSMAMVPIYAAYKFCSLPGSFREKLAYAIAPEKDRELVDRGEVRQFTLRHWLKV
Chain of Ca2+ Channel N-Type (Q02294 whole entry, looked up): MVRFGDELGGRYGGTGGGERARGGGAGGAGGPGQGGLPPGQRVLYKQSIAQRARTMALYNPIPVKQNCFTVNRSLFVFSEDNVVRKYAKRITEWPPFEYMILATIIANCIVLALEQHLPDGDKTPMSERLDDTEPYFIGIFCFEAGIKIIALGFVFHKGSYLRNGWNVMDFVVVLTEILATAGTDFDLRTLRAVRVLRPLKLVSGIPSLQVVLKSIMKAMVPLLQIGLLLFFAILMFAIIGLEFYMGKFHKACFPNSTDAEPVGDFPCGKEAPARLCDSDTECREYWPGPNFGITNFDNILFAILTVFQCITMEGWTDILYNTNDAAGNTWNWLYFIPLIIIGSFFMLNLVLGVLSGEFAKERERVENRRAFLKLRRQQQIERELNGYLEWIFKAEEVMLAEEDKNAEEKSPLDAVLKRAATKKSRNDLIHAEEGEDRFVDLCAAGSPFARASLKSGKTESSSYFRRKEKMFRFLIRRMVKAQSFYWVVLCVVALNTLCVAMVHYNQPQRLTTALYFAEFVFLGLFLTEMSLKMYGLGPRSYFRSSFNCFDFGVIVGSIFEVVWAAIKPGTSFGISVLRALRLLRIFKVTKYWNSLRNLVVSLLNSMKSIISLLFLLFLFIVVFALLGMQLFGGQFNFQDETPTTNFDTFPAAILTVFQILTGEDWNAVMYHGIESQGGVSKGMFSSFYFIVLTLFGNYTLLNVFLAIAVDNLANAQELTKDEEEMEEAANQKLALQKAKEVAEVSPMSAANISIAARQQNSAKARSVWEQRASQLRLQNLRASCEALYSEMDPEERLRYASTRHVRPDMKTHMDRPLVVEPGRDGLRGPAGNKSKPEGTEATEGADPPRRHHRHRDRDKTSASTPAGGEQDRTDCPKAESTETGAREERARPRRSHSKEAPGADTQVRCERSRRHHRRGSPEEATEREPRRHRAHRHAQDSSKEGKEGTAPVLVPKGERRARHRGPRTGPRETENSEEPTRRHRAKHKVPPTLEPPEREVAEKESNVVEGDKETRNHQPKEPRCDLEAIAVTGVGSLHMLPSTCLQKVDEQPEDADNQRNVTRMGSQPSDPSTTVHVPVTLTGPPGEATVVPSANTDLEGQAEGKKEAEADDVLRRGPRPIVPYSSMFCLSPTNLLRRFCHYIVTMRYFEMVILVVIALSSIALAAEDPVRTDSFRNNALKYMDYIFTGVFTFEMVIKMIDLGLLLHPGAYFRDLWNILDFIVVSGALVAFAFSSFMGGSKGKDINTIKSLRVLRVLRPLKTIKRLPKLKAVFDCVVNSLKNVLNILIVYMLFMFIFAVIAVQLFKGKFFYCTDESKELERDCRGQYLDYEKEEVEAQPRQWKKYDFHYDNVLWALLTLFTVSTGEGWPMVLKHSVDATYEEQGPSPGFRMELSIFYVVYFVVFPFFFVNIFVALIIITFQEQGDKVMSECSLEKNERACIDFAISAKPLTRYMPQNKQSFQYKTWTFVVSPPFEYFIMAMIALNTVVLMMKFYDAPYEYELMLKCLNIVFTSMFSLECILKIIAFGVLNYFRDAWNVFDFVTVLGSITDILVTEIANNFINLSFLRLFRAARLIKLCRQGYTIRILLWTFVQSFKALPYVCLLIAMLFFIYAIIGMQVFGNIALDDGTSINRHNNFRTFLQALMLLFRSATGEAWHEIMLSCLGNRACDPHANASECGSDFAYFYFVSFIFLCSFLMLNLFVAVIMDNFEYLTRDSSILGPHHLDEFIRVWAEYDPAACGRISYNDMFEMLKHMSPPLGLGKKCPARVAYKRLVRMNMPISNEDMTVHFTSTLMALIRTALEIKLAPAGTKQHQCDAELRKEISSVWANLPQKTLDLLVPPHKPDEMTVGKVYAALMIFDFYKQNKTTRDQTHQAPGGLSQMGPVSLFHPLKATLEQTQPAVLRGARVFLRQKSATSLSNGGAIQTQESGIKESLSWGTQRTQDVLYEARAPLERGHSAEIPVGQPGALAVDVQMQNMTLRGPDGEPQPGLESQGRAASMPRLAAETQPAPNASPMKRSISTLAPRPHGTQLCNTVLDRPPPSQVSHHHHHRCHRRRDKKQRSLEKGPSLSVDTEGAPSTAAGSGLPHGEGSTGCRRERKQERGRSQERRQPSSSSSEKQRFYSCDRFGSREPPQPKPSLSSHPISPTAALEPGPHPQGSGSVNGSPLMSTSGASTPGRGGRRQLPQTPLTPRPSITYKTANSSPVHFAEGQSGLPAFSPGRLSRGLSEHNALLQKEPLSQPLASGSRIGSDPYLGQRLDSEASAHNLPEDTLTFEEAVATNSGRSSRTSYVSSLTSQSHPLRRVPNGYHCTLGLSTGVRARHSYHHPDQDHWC
T6 sequence (P25021 whole entry): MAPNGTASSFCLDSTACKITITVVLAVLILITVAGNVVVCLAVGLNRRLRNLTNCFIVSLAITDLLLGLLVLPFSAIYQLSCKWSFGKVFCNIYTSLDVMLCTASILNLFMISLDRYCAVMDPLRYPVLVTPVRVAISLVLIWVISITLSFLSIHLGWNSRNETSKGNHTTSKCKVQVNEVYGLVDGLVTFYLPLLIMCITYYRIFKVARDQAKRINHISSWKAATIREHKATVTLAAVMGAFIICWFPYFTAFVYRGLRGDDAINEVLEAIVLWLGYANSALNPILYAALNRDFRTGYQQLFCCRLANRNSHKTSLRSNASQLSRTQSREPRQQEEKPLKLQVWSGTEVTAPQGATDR
T2 sequence (Q9Y271 whole entry): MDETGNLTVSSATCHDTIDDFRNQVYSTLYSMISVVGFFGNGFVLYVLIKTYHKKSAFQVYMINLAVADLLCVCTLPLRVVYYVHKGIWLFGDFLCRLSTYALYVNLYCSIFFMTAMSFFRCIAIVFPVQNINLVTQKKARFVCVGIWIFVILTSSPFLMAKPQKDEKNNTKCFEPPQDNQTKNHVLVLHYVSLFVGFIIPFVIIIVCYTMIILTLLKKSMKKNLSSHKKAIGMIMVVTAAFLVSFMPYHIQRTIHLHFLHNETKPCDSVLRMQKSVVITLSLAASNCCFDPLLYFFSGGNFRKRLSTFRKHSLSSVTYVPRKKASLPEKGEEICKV

`COc1cc(C(F)(F)F)c(OC)cc1[C@@H]1CCCNC1` [(S)-11, 3-(2,5-Dimethoxy-4-(trifluoromethyl)phenyl)piperidine Hydrochloride] was tested, and the “% inhibition of the specific radioligand binding” value (“% inhibition” below) (GABAA receptor (GABA); (S)-11 10 μM, n=1) was 1%, the IC50 (GABAA receptor (GABA); [11]) was greater than 10 µM and the “% inhibition” value (Thyroid hormone receptor; (S)-11 10 μM, n=1) was -1%. For the same molecule, the IC50 (Thyroid hormone receptor; [11]) was greater than 10 µM, the IC50 [1, 11] was greater than 10 µM and the inhibition at 10 µM [1, 12] was 36%. For the same molecule, the IC50 [2, 11] was greater than 10 µM, the inhibition at 10 µM [2, 12] was -7% and the IC50 (SERT; [11]) was greater than 10 µM. For the same molecule, the inhibition at 10 µM (SERT; [12]) was 22%, the inhibition at 10 µM [3] was -6% and the “% inhibition” value (GABAA receptor (benzod.); (S)-11 10 μM, n=1) was -14%. It also gave an IC50 (GABAA receptor (benzod.); [11]) greater than 10 µM, an IC50 (Endothelin receptor ETB; [11]) greater than 10 µM and an inhibition at 10 µM (Endothelin receptor ETB; [12]) of -6%. It also gave an IC50 (M1 (muscarinic receptor); [11]) of roughly 1 µM, an inhibition at 1 µM (M1 (muscarinic receptor); [12]) of 51% and an inhibition at 10 µM (M1 (muscarinic receptor); [12]) of 90%. For the same molecule, the IC50 [4, 11] was greater than 10 µM, the inhibition at 10 µM [4, 12] was 10% and the IC50 [5, 11] was greater than 10 µM. The inhibition at 1 µM [5, 12] was 1%, the inhibition at 10 µM [5, 12] was 34% and the inhibition at 10 µM [6] was 30%. It also gave an inhibition at 10 µM [7] of -8%, an IC50 (Glucocorticoid receptor; [11]) greater than 10 µM and an inhibition at 10 µM (Glucocorticoid receptor; [12]) of 11%. For the same molecule, the IC50 (Opioid receptor δ; [11]) was greater than 10 µM, the inhibition at 10 µM (Opioid receptor δ; [12]) was 18% and the “% inhibition” value (Imidazoline receptor I2; (S)-11 10 μM, n=1) was 17%. The IC50 (Imidazoline receptor I2; [11]) was greater than 10 µM, the “% inhibition” value (Kainate receptor; (S)-11 10 μM, n=1) was 9% and the IC50 (Kainate receptor; [11]) was greater than 10 µM. It also gave an IC50 [8, 11] greater than 10 µM, an inhibition at 10 µM [8, 12] of -4% and an IC50 (5-HT4e; [11]) greater than 10 µM. It also gave an inhibition at 10 µM (5-HT4e; [12]) of 30%, an inhibition at 10 µM [9] of 66% and an inhibition at 10 µM [10] of 9%. For the same molecule, the IC50 (Ca2+ Channel N-Type) was greater than 10 µM, the inhibition at 10 µM (Ca2+ Channel N-Type; [12]) was -5% and the IC50 (Adenosine receptor A3; [11]) was greater than 10 µM. For the same molecule, the inhibition at 10 µM (Adenosine receptor A3; [12]) was -10%, the IC50 (DAT; [11]) was greater than 10 µM and the inhibition at 10 µM (DAT; [12]) was 12%. For the same molecule, the IC50 (human 5-HT2CR) was 0.316 µM.

Source: publication PMC11089506 (Journal of Medicinal Chemistry, 2024)
